Measured values taken from patent publication US12478569B2, “Compositions methods and device for enhancing dental care based on dead sea salt and cannabinoid or extract of cannabis plant” (CANNIBITE BVBA, priority 2019, dated 2025).

What was measured:
Format in all cases: cell-based
gingival plaque = assay: Cannabinoid effects on gingival plaque in vitro in subjects with gum disease (FIG. 2)
Description: FIG. 2A-2F illustrate the effects of selected cannabinoids on gingival plaque in various individuals. Samples of gingival plaque were obtained from individuals A-F with various degrees of gum disease, samples were plated in the presence of various cannabinoids, cannabinoid formulations or essential oils, and cultured as above (samples A-F correspond to plates 1-6).
The effects of cannabinoids on gum disease was further investigated in a series of subjects with various degrees of gingivitis (an earliest and mildest form) or periodontitis (full-fledged gum disease), the severity of gum disease was further evaluated using Dutch Periodontal Screening Index (DPSI).
Samples of gingival plaque were obtained from 6 subjects (A-F) with various degrees of gum disease, samples were plated and cultured for 2 days at 37° C. in the presence of various cannabinoids and cannabinoid combinations.

dental flora (plaque) = assay: Cannabinoid sensitivity tests in vitro on dental flora (plaque) of 10 subjects; parameters: key to suppression of bacterial flora (score): Increasing scores (+) indicate an increased suppression of bacterial flora; settings: for suppression of bacterial flora (score): dental flora in vitro
Description: Subsequently, in a more extended in vitro trial the effectiveness of cannabinoids was determined in 10 subjects (A-J). Samples of dental flora (plaque) were collected by swabs, scrapes, and were tested on the following panel of cannabinoids and cannabinoid combinations: • 1=CBD • 2=CBD+CBN • 3=CBD+CBN+CBG • 4=CBD+CBN+CBG+CBC • 5=CBD+CBN+CBG+CBC+CBGA • 6=CHG reference antimicrobial agent • 7=control with no antiseptic or antimicrobial agent.
Bacterial sensitivity was determined by conventional methods, e.g., growth on selective media, microscopic fluorescence examination.

dental biofilm/plaque = assay: Preliminary case study: dental biofilm/plaque sample plated and cultured in the presence of cannabinoids (FIG. 1); settings: dental plaque sample cultured for 2 days at 37° C.
Description: FIG. 1 illustrates a case study on the antimicrobial effect of cannabinoids on dental plaque. A sample of dental plaque was plated in the presence CBD or CBG and a reference antimicrobial agent (chlorhexidine gluconate, CHG), and cultured for 2 days at 37° C. The resulting bacterial colonies are shown.
A sample of dental biofilm/plaque was obtained, plated and cultured for 2 days at 37° C. in the presence of two types of cannabinoids, CBD and CBG, and Chlorhexidine (CHG) as a reference antimicrobial agent.

[1] = subject A, moderate gingivitis, DPSI score 1, 2 days at 37° C.
[2] = subject C, periodontitis, DPSI score −3, 2 days at 37° C.
[3] = subject D, moderate gingivitis, DPSI score 2, 2 days at 37° C.
[4] = subject E, advanced periodontitis, DPSI score +3, 2 days at 37° C.
[5] = subject F, moderate gingivitis, DPSI score 1, 2 days at 37° C.

| SMILES | Relative effectiveness (gingival plaque; [1]) | Relative effectiveness (gingival plaque; [2]) | Relative effectiveness (gingival plaque; [3]) | Relative effectiveness (gingival plaque; [4]) | Relative effectiveness (gingival plaque; [5]) | bacterial growth in the saturated zone (dental biofilm/plaque) | further results |
| --- | --- | --- | --- | --- | --- | --- | --- |
| CCCCCc1cc(O)c2c(c1)OC(C)(CCC=C(C)C)C=C2 (stereo not drawn) [CBC, Cannabichromene] | CBG > CBGA > CBN ≈ CBC | CBC > CBG > CBD > CBN | CBGA > CBC > CBG ≈ CBN | CBG ≈ CBGA > CBC > CBD | CBC > CBG ≈ CBGA ≈ CBD |  |  |
| C=C(C)[C@@H]1CCC(C)=C[C@H]1c1c(O)cc(CCCCC)cc1O [CBD, Cannabidiol] |  | CBC > CBG > CBD > CBN |  | CBG ≈ CBGA > CBC > CBD | CBC > CBG ≈ CBGA ≈ CBD | no growth | effectiveness on suppression of dental flora in vitro (dental flora (plaque); in many individuals): sufficiently effective; most effective panel of cannabinoids (dental flora (plaque); patient B): most effective; Relative effectiveness (gingival plaque; subject B, no gingivitis and no pathology, DPSI score 0, 2 days at 37° C.): POM ≈ POM form. ≈ CBD > CBD form. |
| CCCCCc1cc(O)c(C/C=C(\C)CCC=C(C)C)c(O)c1 [CBG, Cannabigerol] | CBG > CBGA > CBN ≈ CBC | CBC > CBG > CBD > CBN | CBGA > CBC > CBG ≈ CBN | CBG ≈ CBGA > CBC > CBD | CBC > CBG ≈ CBGA ≈ CBD | lesser bacterial growth |  |
| CCCCCc1cc(O)c(C/C=C(\C)CCC=C(C)C)c(O)c1C(=O)O [CBGA, Cannabigerolic acid] | CBG > CBGA > CBN ≈ CBC |  | CBGA > CBC > CBG ≈ CBN | CBG ≈ CBGA > CBC > CBD | CBC > CBG ≈ CBGA ≈ CBD |  |  |
| CCCCCc1cc(O)c2c(c1)OC(C)(C)c1ccc(C)cc1-2 [CBN, Cannabinol] | CBG > CBGA > CBN ≈ CBC | CBC > CBG > CBD > CBN | CBGA > CBC > CBG ≈ CBN |  |  |  |  |
| N=C(NCCCCCCNC(=N)NC(=N)Nc1ccc(Cl)cc1)NC(=N)Nc1ccc(Cl)cc1.O=C(O)[C@H](O)[C@@H](O)[C@H](O)[C@H](O)CO.O=C(O)[C@H](O)[C@@H](O)[C@H](O)[C@H](O)CO [CHG, chlorhexidine gluconate] |  |  |  |  |  | lesser bacterial growth | suppression of bacterial flora (score) (dental flora (plaque); subject A): + +; suppression of bacterial flora (score) (dental flora (plaque); subject B): + +; suppression of bacterial flora (score) (dental flora (plaque); subject C): +; suppression of bacterial flora (score) (dental flora (plaque); subject D): + +; suppression of bacterial flora (score) (dental flora (plaque); subject E): − −; suppression of bacterial flora (score) (dental flora (plaque); subject F): − −; suppression of bacterial flora (score) (dental flora (plaque); subject G): + + +; suppression of bacterial flora (score) (dental flora (plaque); subject H): +; suppression of bacterial flora (score) (dental flora (plaque); subject I): + +; suppression of bacterial flora (score) (dental flora (plaque); subject J): − − |
